{
  "source": "ChEMBL document CHEMBL3091353",
  "about": "“Trisubstituted and tetrasubstituted pyrazolines as a novel class of cell-growth inhibitors in tumor cells with wild type p53” (Bioorg Med Chem, 2013)",
  "key": {"[1]": {"biological_target": "E3 ubiquitin-protein ligase Mdm2 (Homo sapiens) (UniProt Q00987)", "sequence (Q00987 whole entry, looked up)": "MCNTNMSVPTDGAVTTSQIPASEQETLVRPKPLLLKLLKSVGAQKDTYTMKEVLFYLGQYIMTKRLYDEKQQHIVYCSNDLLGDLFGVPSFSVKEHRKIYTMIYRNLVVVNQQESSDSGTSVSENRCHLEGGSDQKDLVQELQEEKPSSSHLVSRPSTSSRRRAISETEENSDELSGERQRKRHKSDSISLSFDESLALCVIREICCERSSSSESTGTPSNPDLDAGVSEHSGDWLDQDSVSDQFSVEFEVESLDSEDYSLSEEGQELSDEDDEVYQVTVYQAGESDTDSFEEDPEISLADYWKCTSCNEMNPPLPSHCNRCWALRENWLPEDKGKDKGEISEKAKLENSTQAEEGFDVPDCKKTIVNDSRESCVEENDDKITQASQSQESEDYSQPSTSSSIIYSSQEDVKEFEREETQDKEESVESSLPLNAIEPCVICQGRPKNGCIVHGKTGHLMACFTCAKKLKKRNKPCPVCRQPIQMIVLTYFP", "experiment": "Displacement of carboxyfluorescein-labeled LTFEHYWAQLTS-FAM from human MDM2 (16 to 116) expressed in Escherichia coli C41 at 0.005 to 1 mM by fluorescence anisotropic analysis"}, "[2]": {"biological_target": "E3 ubiquitin-protein ligase Mdm2 (Homo sapiens) (UniProt Q00987)", "experiment": "Displacement of carboxyfluorescein-labeled LTFEHYWAQLTS-FAM from MDM2 (unknown origin) (2 to 125) at 0.005 to 1 mM by fluorescence anisotropic analysis"}, "[3]": {"experiment": "Cytotoxicity against human H1299 cells after 72 hrs by CellTiterGlo luciferase-based assay", "type": "functional, cell-based", "settings": "NCI-H1299, 72 h"}, "HCT-116 [4]": {"test_system": "HCT-116", "experiment": "Cytotoxicity against human HCT116 cells after 72 hrs by CellTiterGlo luciferase-based assay", "type": "functional, cell-based", "settings": "HCT-116, 72 h"}, "[5]": {"biological_target": "Cellular tumor antigen p53 (Homo sapiens) (UniProt P04637)", "sequence (P04637 whole entry, looked up)": "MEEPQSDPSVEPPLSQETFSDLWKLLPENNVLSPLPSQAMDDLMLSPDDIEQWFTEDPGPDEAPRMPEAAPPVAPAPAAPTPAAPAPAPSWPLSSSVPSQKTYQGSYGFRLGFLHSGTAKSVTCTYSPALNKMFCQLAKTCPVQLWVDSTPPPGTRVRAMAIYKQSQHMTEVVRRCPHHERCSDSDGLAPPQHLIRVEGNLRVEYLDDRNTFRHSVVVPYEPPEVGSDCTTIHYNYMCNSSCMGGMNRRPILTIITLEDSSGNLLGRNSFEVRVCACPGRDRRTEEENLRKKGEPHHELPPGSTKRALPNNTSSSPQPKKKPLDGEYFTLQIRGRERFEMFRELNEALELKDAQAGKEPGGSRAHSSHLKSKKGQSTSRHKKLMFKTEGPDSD", "experiment": "Induction of p53 translocation in human HCT116 cells assessed as protein nuclear to cytosolic ratio at 30 uM after 20 hrs by immunofluorescence analysis", "type": "cell-based", "settings": "HCT-116"}, "[6]": {"experiment": "Ratio of IC50 for human H1299 cells to IC50 for human HCT116 cells", "settings": "H1299 cells and HCT116 cells"}, "HCT-116 [7]": {"test_system": "HCT-116", "experiment": "Cytotoxicity against human HCT116 cells at 20 uM after 72 hrs by CellTiterGlo luciferase-based assay", "type": "functional, cell-based"}, "NCI-H1299": {"test_system": "NCI-H1299", "experiment": "Cytotoxicity against human H1299 cells at 20 uM after 72 hrs by CellTiterGlo luciferase-based assay", "type": "functional, cell-based"}},
  "note": "Calls of active or inactive are those of the source. The calls are words filed in the database; no cut-off is given here.",
  "data": [
    {"smiles": "CC(C)(C)C1=NN(c2ccc(Cl)cc2)C(c2ccc(Cl)cc2)C1", "note": "(stereo not drawn)", "values": [
      {"measurement": "inhibition", "setting": "[1]", "result": "Active"},
      {"measurement": "inhibition", "setting": "[2]", "result": "Active"},
      {"measurement": "IC50", "setting": "[3]", "result": 19.3, "unit": "µM"},
      {"measurement": "IC50", "setting": "HCT-116 [4]", "result": 17.3, "unit": "µM"}
    ]},
    {"smiles": "CC(C)(C)C1=NN(c2ccc(Cl)cc2)C(c2ccc(Cl)c(Cl)c2)C1", "note": "(stereo not drawn)", "values": [
      {"measurement": "inhibition", "setting": "[1]", "result": "Active"},
      {"measurement": "inhibition", "setting": "[2]", "result": "Active"},
      {"measurement": "IC50", "setting": "[3]", "result": 14.8, "unit": "µM"},
      {"measurement": "IC50", "setting": "HCT-116 [4]", "result": 5.3, "unit": "µM"}
    ]},
    {"smiles": "COc1cccc(C2=NN(c3ccc(Cl)cc3)C(c3cccc(Cl)c3)C2)c1", "note": "(stereo not drawn)", "values": [
      {"measurement": "inhibition", "setting": "[1]", "result": "inactive"},
      {"measurement": "inhibition", "setting": "[2]", "result": "inactive"},
      {"measurement": "IC50", "setting": "HCT-116 [4]", "result": 18.5, "unit": "µM"}
    ]},
    {"smiles": "COc1ccccc1C1=NN(c2ccccc2Cl)C(c2cccc(Cl)c2)C1", "note": "(stereo not drawn)", "values": [
      {"measurement": "inhibition", "setting": "[1]", "result": "inactive"},
      {"measurement": "inhibition", "setting": "[2]", "result": "inactive"},
      {"measurement": "IC50", "setting": "[3]", "result": 13.4, "unit": "µM"},
      {"measurement": "IC50", "setting": "HCT-116 [4]", "result": 1.9, "unit": "µM"}
    ]},
    {"smiles": "CC(C)(C)C1=NN(c2ccc(Cl)cc2)C(c2ccc(Cl)cc2)C1C(=O)N1CCOCC1", "note": "(stereo not drawn)", "values": [
      {"measurement": "inhibition", "setting": "[1]", "result": "Active"},
      {"measurement": "inhibition", "setting": "[2]", "result": "Active"},
      {"measurement": "IC50", "setting": "[3]", "result": 14.2, "unit": "µM"},
      {"measurement": "IC50", "setting": "HCT-116 [4]", "result": 3.5, "unit": "µM"}
    ]},
    {"smiles": "CC(C)(C)C1=NN(c2ccc(Br)cc2)C(c2ccc(Cl)cc2)C1", "note": "(stereo not drawn)", "values": [
      {"measurement": "inhibition", "setting": "[1]", "result": "Active"},
      {"measurement": "inhibition", "setting": "[2]", "result": "Active"},
      {"measurement": "IC50", "setting": "[3]", "result": 19.4, "unit": "µM"},
      {"measurement": "IC50", "setting": "HCT-116 [4]", "result": 4.3, "unit": "µM"}
    ]},
    {"smiles": "CCOc1ccccc1C1=NN(c2ccc(Cl)cc2)C(c2ccc(Cl)cc2)C1C(=O)N1CCOCC1", "note": "(stereo not drawn)", "values": [
      {"measurement": "inhibition", "setting": "[1]", "result": "inactive"},
      {"measurement": "inhibition", "setting": "[2]", "result": "inactive"},
      {"measurement": "IC50", "setting": "[3]", "result": 8.4, "unit": "µM"},
      {"measurement": "IC50", "setting": "HCT-116 [4]", "result": 8, "unit": "µM"}
    ]},
    {"smiles": "COc1ccccc1C1=NN(c2cccc(Cl)c2)C(c2cccc(Cl)c2)C1", "note": "(stereo not drawn)", "values": [
      {"measurement": "inhibition", "setting": "[1]", "result": "inactive"},
      {"measurement": "inhibition", "setting": "[2]", "result": "inactive"},
      {"measurement": "IC50", "setting": "[3]", "result": 11.7, "unit": "µM"},
      {"measurement": "IC50", "setting": "HCT-116 [4]", "result": 1.6, "unit": "µM"}
    ]},
    {"smiles": "COc1cccc(C2=NN(c3ccccc3Cl)C(c3ccccc3Cl)C2)c1", "note": "(stereo not drawn)", "values": [
      {"measurement": "Activity", "setting": "[5]", "result": "inactive"},
      {"measurement": "inhibition", "setting": "[1]", "result": "inactive"},
      {"measurement": "inhibition", "setting": "[2]", "result": "inactive"},
      {"measurement": "IC50", "setting": "[3]", "result": 13.6, "unit": "µM"},
      {"measurement": "IC50", "setting": "HCT-116 [4]", "result": 2.5, "unit": "µM"}
    ]},
    {"smiles": "COc1ccc(C2=NN(c3ccccc3Cl)C(c3cccc(Cl)c3)C2)cc1", "note": "(stereo not drawn)", "values": [
      {"measurement": "inhibition", "setting": "[1]", "result": "inactive"},
      {"measurement": "inhibition", "setting": "[2]", "result": "inactive"},
      {"measurement": "IC50", "setting": "[3]", "result": 7.2, "unit": "µM"},
      {"measurement": "IC50", "setting": "HCT-116 [4]", "result": 1.5, "unit": "µM"}
    ]},
    {"smiles": "COc1ccc(C2=N[C@@H](c3ccc(Cl)cc3)[C@@H](c3ccc(Cl)cc3)N2C(=O)N2CCNC(=O)C2)c(OC(C)C)c1", "note": "[NUTLIN-3]", "values": [
      {"measurement": "selectivity ratio", "setting": "[6]", "result": 9},
      {"measurement": "IC50", "setting": "[3]", "result": 14.7, "unit": "µM"},
      {"measurement": "IC50", "setting": "HCT-116 [4]", "result": 1.6, "unit": "µM"}
    ]},
    {"smiles": "COc1ccc(C2=NN(c3cccc(Cl)c3)C(c3ccccc3Cl)C2)cc1", "note": "(stereo not drawn)", "values": [
      {"measurement": "inhibition", "setting": "HCT-116 [7]", "result": "Active"},
      {"measurement": "inhibition", "setting": "NCI-H1299", "result": "Active"}
    ]},
    {"smiles": "CC(C)(C)C1=NN(c2ccc(Cl)cc2)C(c2ccc3ccccc3c2)C1", "note": "(stereo not drawn)", "values": [
      {"measurement": "inhibition", "setting": "[1]", "result": "Active"},
      {"measurement": "inhibition", "setting": "[2]", "result": "Active"},
      {"measurement": "IC50", "setting": "HCT-116 [4]", "result": 12.7, "unit": "µM"}
    ]}
  ]
}
